# Laboratory results taken from patent US20180161338A1, “RETOSIBAN FOR THE TREATMENT OF PRE-TERM LABOUR” (priority 2014, published 2018).
# Bridge positions count the residues as written; N and C are the ends. Square brackets hold non-standard residues; d marks the D form. Peptide text beside a SMILES is read from it. Orn = NCCC[C@H](N)C(=O)O; Mpa = O=C(O)CCS
# How the values were obtained:
# Human myometrial strips = experiment: Maximal contractile responses to KCl and oxytocin of myometrial strips cultured under low or high stretch; format: cell-based; conditions: for median fold change with retosiban, maximal response to KCl / median fold change with retosiban, maximal response to oxytocin: retosiban versus vehicle
# Experimental: Human myometrial strips (obtained from non-labouring patients undergoing routine elective caesarean section at term) were cultured in medium (phenol red free DMEM supplemented with 10% charcoal stripped foetal calf serum, 2 mM L-glutamine and antibiotics) in an incubator (37° C., humidified 5% CO2) under conditions of low stretch (0.6 g mass) or high stretch (2.4 g mass). Half of the strips in both the low and high stretch groups were incubated with […] retosiban (diluted in DMSO). The remaining strips (paired samples from the same patient) were incubated DMSO.
# After 20-24 hours incubation, myometrial contractility of the strips was studied as described previously (J Physiol 2012; 590(Pt9): 2081-2093). Briefly, tension was initially set at 2 g for all strips. Strips were washed with fresh Krebs after 15 and 30 min and the tension reset to 2 g. After a further hour of washes (every 15 min), the issue was treated with 50 mM KCl (50 mM, 5-7 min). This was washed, the tissue allowed to recover and then a cumulative concentration response curve to oxytocin (up to 100 nM) was obtained. Maximal responses to KCl and oxytocin were normalized to strip wet weight. The mean normalized responses of duplicate strips were calculated for the four different groups (low stretch with retosiban, low stretch with vehicle, high stretch with retosiban, high stretch with vehicle). Effects were expressed as fold change i.e. the ratio of normalized responses in the experimental and control conditions from different strips obtained from the same person. pEC50 values were calculated using analysis of the area under the curve for each concentration of oxytocin.
# Since the data were expressed as fold changes, all ratios were log transformed and normal distribution following log transformation was assessed using the Sharpiro-Wilk test. The null hypothesis was that there was no change in the mean normalized responses with a given intervention. […] Continuous associations were assessed using linear regression of log transformed fold changes. For the analysis of pEC50 Student's paired t-test was used.
# [1] = test system: pre-term labour in singleton pregnancies; conditions: cited from earlier work
# [2] = test system: pre-term labour in twin pregnancies; conditions: isolated reports, not placebo controlled; cited from earlier work
# [3] = test system: asymptomatic women with a short cervix pregnant with a single foetus; conditions: daily administration; cited from earlier work
# [4] = test system: women pregnant with twins; conditions: prophylactic administration; cited from earlier work
smiles,measurement,setting,value
"CC[C@H](C)[C@@H]1C(=O)N[C@H](C2Cc3ccccc3C2)C(=O)N1[C@@H](C(=O)N1CCOCC1)c1coc(C)n1 [retosiban, (3R,6R)-3-(2,3-dihydro-1H-inden-2-yl)-1-[(1R)-1-(2-methyl-1,3-oxazol-4-yl)-2-(morpholin-4-yl}-2-oxoethyl]-6-[(1S)-1-methylpropyl]-2,5-piperazinedione]","median fold change with retosiban, maximal response to KCl","Human myometrial strips; high stretch (2.4 g), n=12",0.74
same,"median fold change with retosiban, maximal response to oxytocin","Human myometrial strips; high stretch (2.4 g), n=12",0.71
same,"median fold change with retosiban, maximal response to KCl","Human myometrial strips; low stretch (0.6 g), n=12",1.00
same,"median fold change with retosiban, maximal response to oxytocin","Human myometrial strips; low stretch (0.6 g), n=12",0.97
same,relationship between the effect of stretch and the effect of retosiban on responses to KCl and oxytocin,"Human myometrial strips; per patient, FIG. 3",the greater was the reduction in response induced by retosiban
same,"fold change with stretch (high stretch compared with low stretch), maximal response to KCl","Human myometrial strips; strips incubated with 1 mM retosiban 20-24 h, retosiban removed, 50 mM KCl, n=12",1.14
same,"fold change with stretch (high stretch compared with low stretch), maximal response to oxytocin","Human myometrial strips; strips incubated with 1 mM retosiban 20-24 h, retosiban removed, oxytocin up to 100 nM, n=12",1.14
same,increase in days to delivery relative to placebo (mean),[1]; phase II clinical study,8.2 days
same,response rate or percentage of women achieving uterine quiescence,"[1]; ≤4 contractions/h with no change in cervical dilation >1 cm at 5-6 h, depending upon route of administration/dose",50-57%
CCOc1ccc(C[C@H]2NC(=O)CCSSC[C@@H](C(=O)N3CCC[C@H]3C(=O)N[C@@H](CCCN)C(=O)NCC(N)=O)NC(=O)[C@H](CC(N)=O)NC(=O)[C@H]([C@@H](C)O)NC(=O)[C@H]([C@@H](C)CC)NC2=O)cc1 [atosiban] ([Mpa][dY](Et)ITNCP[Orn]G-NH2; disulfide 1-6),treatment of pre-term labour in twin pregnancies,[2],used successfully
"CC(=O)[C@H]1CC[C@H]2[C@@H]3CCC4=CC(=O)CC[C@]4(C)[C@H]3CC[C@]12C [vaginal progesterone, progesterone]",reduction of the frequency of birth before 34 weeks of gestation,[3],more than 40%
CCCCCC(=O)O[C@]1(C(C)=O)CC[C@H]2[C@@H]3CCC4=CC(=O)CC[C@]4(C)[C@H]3CC[C@@]21C [17-α hydroxyprogesterone caproate],reduction in the frequency of pre-term birth,[4],no reduction
